# Assay results reported in ChEMBL document CHEMBL5230091, “Histone deacetylase inhibitor based prodrugs” (Eur J Med Chem, 2020).
# How the values were obtained:
# [1] = Aqueous solubility of compound by HPLC method; format: physicochemical; conditions: water (aqueous)
# A549 = assay: Antiproliferative activity against human A549 cells assessed as cell growth inhibition measured after 72 hrs by SRB assay; format: functional, cell-based; conditions: A549, 72 h
# HCT-116 [2] = assay: Antiproliferative activity against human HCT-116 cells assessed as cell growth inhibition measured after 72 hrs by SRB assay; format: functional, cell-based; conditions: HCT-116, 72 h
# [3] = Cytotoxicity against human Astrocyte cells assessed as cell growth inhibition; format: toxicity, cell-based
# U-251 = assay: Antiproliferative activity against human U-251MG cells assessed as cell growth inhibition; format: functional, cell-based
# SF-188 = assay: Antiproliferative activity against human SF-188 cells assessed as cell growth inhibition; format: functional, cell-based
# HCT-116 [4] = assay: Antitumor activity against human HCT-116 cells xenografted in athymic nude mouse assessed as tumor volume inhibition at 60 mg/kg per day, po; format: functional
# NCI-H1975 = assay: Antitumor activity against human NCI-H1975 cells xenografted in athymic nude mouse assessed as tumor volume inhibition at 60 mg/kg per day, po; format: functional
# SK-OV-3 = assay: Antitumor activity against human SK-OV-3 cells xenografted in athymic nude mouse assessed as tumor volume inhibition at 60 mg/kg per day, po; format: functional
# MDA-MB-436 = assay: Antitumor activity against human MDA-MB-436 cells xenografted in athymic nude mouse assessed as tumor volume inhibition at 60 mg/kg per day, po; format: functional
# MV4-11 = assay: Antitumor activity against human MV4-11 cells xenografted in athymic nude mouse assessed as tumor volume inhibition at 60 mg/kg per day, po; format: functional
smiles,measurement,setting,value
CN(CCOC(=O)ONC(=O)/C=C/c1cccc(S(=O)(=O)Nc2ccccc2)c1)C(=O)OCc1ccc(O[C@@H]2O[C@H](C(=O)O)[C@@H](O)[C@H](O)[C@H]2O)c(N)c1,solubility,[1],100 mg/mL
CCc1c2c(nc3ccc(O)cc13)-c1cc3c(c(=O)n1C2)COC(=O)[C@@]3(CC)OC(=O)CNC(=O)ONC(=O)CCCCCCC(=O)Nc1ccccc1,IC50,A549,87.3 nM
same,IC50,HCT-116 [2],113 nM
CN(CCOC(=O)ONC(=O)CCCCCCC(=O)Nc1ccccc1)C(=O)OCc1ccc(O[C@@H]2O[C@H](C(=O)O)[C@@H](O)[C@H](O)[C@H]2O)c(N)c1,solubility,[1],55 mg/mL
CN(CCOC(=O)ONC(=O)CCCCCCC(=O)Nc1ccccc1)C(=O)OCc1ccc(O[C@@H]2O[C@H](C(=O)O)[C@@H](O)[C@H](O)[C@H]2O)c([N+](=O)[O-])c1,solubility,[1],40 mg/mL
CCCC(=O)OCOC(=O)CCCc1ccccc1,IC50,[3],291 µM
same,IC50,U-251,154 µM
same,IC50,SF-188,76 µM
CN(CCOC(=O)ONC(=O)/C=C/c1cccc(S(=O)(=O)Nc2ccccc2)c1)C(=O)OCc1ccc(O[C@@H]2O[C@H](C(=O)O)[C@@H](O)[C@H](O)[C@H]2O)c([N+](=O)[O-])c1,solubility,[1],80 mg/mL
CCc1c2c(nc3ccc(O)cc13)-c1cc3c(c(=O)n1C2)COC(=O)[C@]3(O)CC [7-ETHYL-10-HYDROXYCAMPTOTHECIN],IC50,A549,45.4 nM
same,IC50,HCT-116 [2],55.1 nM
CC(=O)SCCCCC[C@H](NC(=O)[C@H]1CCC(=O)N1)C(=O)Nc1ccccc1,inhibition in vivo at 60 mg/kg,HCT-116 [4],77%
same,inhibition in vivo at 60 mg/kg,NCI-H1975,65%
same,inhibition in vivo at 60 mg/kg,SK-OV-3,59%
same,inhibition in vivo at 60 mg/kg,MDA-MB-436,35%
same,inhibition in vivo at 60 mg/kg,MV4-11,70%
